Assay results taken from patent US11752188B2, “Compositions and methods for nutritional supplements” (DailyColors Health Inc., priority 2020, dated 2023).

Columns and labels:
recombinant human CD39 = target: T1, recombinant human CD39 (Homo sapiens, UniProt P49961); assay: CD39 in vitro enzymatic assay (ATP, colorimetric 630 nm); assay type: biochemical; conditions: TABLE 81;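 further: test compound preincubated 30 min with enzyme, then 30 min reaction with ATP at room temperature, absorbance after detection reagent, 100% activity without compound, 0% without enzyme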
T1 construct: purchased BPS Bioscience 71284 (enzyme); kit #79278
T1 sequence (P49961 1-510): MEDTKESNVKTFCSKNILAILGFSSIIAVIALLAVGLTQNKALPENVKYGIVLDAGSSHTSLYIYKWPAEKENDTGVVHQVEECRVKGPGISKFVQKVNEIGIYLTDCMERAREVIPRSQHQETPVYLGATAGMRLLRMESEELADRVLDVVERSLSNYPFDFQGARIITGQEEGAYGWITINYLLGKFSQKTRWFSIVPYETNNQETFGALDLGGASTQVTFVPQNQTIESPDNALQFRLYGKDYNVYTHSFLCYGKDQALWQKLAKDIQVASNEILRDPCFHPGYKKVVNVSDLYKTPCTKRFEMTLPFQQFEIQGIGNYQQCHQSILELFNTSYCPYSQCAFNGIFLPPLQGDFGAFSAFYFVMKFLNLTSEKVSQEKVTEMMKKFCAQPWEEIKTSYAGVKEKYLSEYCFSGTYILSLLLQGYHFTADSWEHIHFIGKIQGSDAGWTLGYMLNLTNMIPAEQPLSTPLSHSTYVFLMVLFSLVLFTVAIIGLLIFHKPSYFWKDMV
Description: The CD39 enzymatic reactions were conducted in duplicate at room temperature for 30 minutes in a 50 μl mixture containing assay buffer, ATP, CD39 enzymes, and the test compound. Test compounds were preincubated with the enzyme for 30 minutes. Reactions were started by addition of the substrate. The 50 μl reactions were carried out in a 96-well transparent plate. After enzymatic reactions, 100 μl of Colorimetric Detection Reagent was added to the reaction mix. After a 15 minutes incubation, absorbance was measured using a Tecan plate reader at 630 nm.

recombinant human CD73 = target: T2, recombinant human CD73 (Homo sapiens, UniProt P21589); assay: CD73 in vitro enzymatic assay (colorimetric 630 nm); assay type: biochemical; conditions: TABLE 91
T2 construct: purchased BPS Bioscience 71184 (enzyme); kit #72055
T2 sequence (P21589 27-549): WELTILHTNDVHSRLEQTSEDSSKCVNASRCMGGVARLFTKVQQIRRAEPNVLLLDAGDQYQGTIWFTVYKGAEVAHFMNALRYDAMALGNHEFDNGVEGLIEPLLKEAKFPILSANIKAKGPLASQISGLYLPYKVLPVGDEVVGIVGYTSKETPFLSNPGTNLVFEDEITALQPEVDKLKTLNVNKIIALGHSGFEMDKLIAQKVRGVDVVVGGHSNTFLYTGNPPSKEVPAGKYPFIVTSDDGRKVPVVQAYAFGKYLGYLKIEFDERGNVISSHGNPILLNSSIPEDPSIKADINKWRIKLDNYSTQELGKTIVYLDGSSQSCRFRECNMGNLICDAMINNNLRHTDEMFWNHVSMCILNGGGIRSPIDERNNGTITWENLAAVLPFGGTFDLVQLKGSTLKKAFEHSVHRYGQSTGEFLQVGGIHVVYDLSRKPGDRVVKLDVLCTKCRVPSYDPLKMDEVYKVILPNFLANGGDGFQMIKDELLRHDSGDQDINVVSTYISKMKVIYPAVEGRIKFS
Text: Here, D5 is the Yellow Blend, D9 is the Purple Blend, D21 is the Green Blend, D13 is the Red Blend, and D31 is CBD. As before, the red blend included Apple Extract, Pomegranate Extract, Tomato Powder, Beet; the green blend included Olive Extract, Rosemary Extract, Green Coffee Bean Extract, Kale; the orange/yellow blend included Onion Extract, Ginger Extract, Grapefruit Extract, Carrot; and the purple/blue blend included Grape, Blueberry Extract, Currant, Elderberry.
Assay Conditions: In general, all assays points were done by following the CD39 and CD73 Inhibitor Screening Assay Kit protocol (BPS Bioscience, #79278 and 72055, respectively). The CD73 enzymatic reactions were conducted in duplicate at room temperature for 30 minutes in a 50 μl mixture containing assay buffer, […], CD73 enzymes, and the test compound. Test compounds were preincubated with the enzyme for 30 minutes. Reactions were started by addition of the substrate. The 50 μl reactions were carried out in a 96-well transparent plate. After enzymatic reactions, 100 μl of Colorimetric Detection Reagent was added to the reaction mix. After a 15 minutes incubation, absorbance was measured using a Tecan plate reader at 630 nm.
Data Analysis: Enzyme activity assays were performed in duplicates at each concentration. The Absorbance intensity data were analyzed and compared. In the absence of the compound, the intensity in each data set was defined as 100% (Ce) activity. In the absence of enzyme, the intensity in each data set was defined as 0% (C0) activity.

C=C(C)[C@@H]1CCC(C)=C[C@H]1c1c(O)cc(CCCCC)cc1O [D31, CBD]
Activity (%) Rep. 1 (recombinant human CD39; 0.0004%): 93%
Activity (%) Rep. 2 (recombinant human CD39; 0.0004%): 91%
Inhibition (%) (recombinant human CD39; 0.0004%): 8%
Net absorbance Rep. 1 (recombinant human CD39; 0.0004%): 0.50
Net absorbance Rep. 2 (recombinant human CD39; 0.0004%): 0.49
Activity (%) Rep. 1 (recombinant human CD39; 0.002%): 90%
Activity (%) Rep. 2 (recombinant human CD39; 0.002%): 92%
Inhibition (%) (recombinant human CD39; 0.002%): 9%
Net absorbance Rep. 1 (recombinant human CD39; 0.002%): 0.48
Net absorbance Rep. 2 (recombinant human CD39; 0.002%): 0.49
Activity (%) Rep. 1 (recombinant human CD39; 0.01%): 96%
Activity (%) Rep. 2 (recombinant human CD39; 0.01%): 103%
Inhibition (%) (recombinant human CD39; 0.01%): 1%
Net absorbance Rep. 1 (recombinant human CD39; 0.01%): 0.52
Net absorbance Rep. 2 (recombinant human CD39; 0.01%): 0.55
Activity (%) Rep. 1 (recombinant human CD73; 0.0004%): 104%
Activity (%) Rep. 2 (recombinant human CD73; 0.0004%): 101%
Inhibition (%) (recombinant human CD73; 0.0004%): 0%
Net absorbance Rep. 1 (recombinant human CD73; 0.0004%): 0.35
Net absorbance Rep. 2 (recombinant human CD73; 0.0004%): 0.34
Activity (%) Rep. 1 (recombinant human CD73; 0.002%): 103%
Activity (%) Rep. 2 (recombinant human CD73; 0.002%): 100%
Inhibition (%) (recombinant human CD73; 0.002%): 0%
Net absorbance Rep. 1 (recombinant human CD73; 0.002%): 0.35
Net absorbance Rep. 2 (recombinant human CD73; 0.002%): 0.34
Activity (%) Rep. 1 (recombinant human CD73; 0.01%): 106%
Activity (%) Rep. 2 (recombinant human CD73; 0.01%): 98%
Inhibition (%) (recombinant human CD73; 0.01%): 0%
Net absorbance Rep. 1 (recombinant human CD73; 0.01%): 0.35
Net absorbance Rep. 2 (recombinant human CD73; 0.01%): 0.33
